Reference: ChEMBL document CHEMBL5356935, “Discovery of rigid biphenyl Plasmodium falciparum DHFR inhibitors using a fragment linking strategy” (RSC Med Chem, 2023)
≈ marks a conversion by molar mass, not a printed value. Calls of active or inactive are those of the source. No cut-off for these calls is given here.

Key:
[1] = target: Bifunctional dihydrofolate reductase-thymidylate synthase (Plasmodium falciparum K1) (UniProt P13922); assay: Binding affinity to Plasmodium falciparum DHFR assessed as binding constant (kon) by surface plasmon resonance analysis
Chain of Bifunctional dihydrofolate reductase-thymidylate synthase (Plasmodium falciparum K1) (P13922 whole entry, looked up): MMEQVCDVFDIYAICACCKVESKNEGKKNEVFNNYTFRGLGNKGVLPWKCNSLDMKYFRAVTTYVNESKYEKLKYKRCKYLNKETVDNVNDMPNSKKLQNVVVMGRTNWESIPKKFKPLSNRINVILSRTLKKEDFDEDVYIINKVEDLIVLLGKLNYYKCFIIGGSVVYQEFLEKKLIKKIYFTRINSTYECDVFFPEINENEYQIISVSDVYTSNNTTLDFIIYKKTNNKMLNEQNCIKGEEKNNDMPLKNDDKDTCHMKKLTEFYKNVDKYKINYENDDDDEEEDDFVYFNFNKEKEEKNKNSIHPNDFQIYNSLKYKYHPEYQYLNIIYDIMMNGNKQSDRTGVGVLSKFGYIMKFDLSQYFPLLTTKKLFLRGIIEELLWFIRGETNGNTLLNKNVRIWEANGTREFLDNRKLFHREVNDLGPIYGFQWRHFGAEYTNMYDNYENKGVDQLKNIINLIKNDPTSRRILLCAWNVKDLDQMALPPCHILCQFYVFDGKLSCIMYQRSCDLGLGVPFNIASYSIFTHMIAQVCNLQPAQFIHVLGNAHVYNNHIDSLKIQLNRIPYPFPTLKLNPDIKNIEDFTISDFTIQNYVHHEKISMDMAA

Plasmodium falciparum [2] = assay: Inhibition of Plasmodium falciparum DHFR N51I/C59R/S108N/I164L quadruple mutant using DHF as substrate at 500 uM in presence of NADPH by UV-Vis spectrometry analysis relative to control
[3] = target: Bifunctional dihydrofolate reductase-thymidylate synthase (Plasmodium falciparum K1) (UniProt P13922); assay: Inhibition of wild type Plasmodium falciparum DHFR using DHF as substrate at 500 uM in presence of NADPH by UV-Vis spectrometry analysis
[4] = target: Bifunctional dihydrofolate reductase-thymidylate synthase (Plasmodium falciparum K1) (UniProt P13922); assay: Binding affinity to Plasmodium falciparum DHFR assessed as binding constant (koff) by surface plasmon resonance analysis
[5] = target: T1, Dihydrofolate reductase (Homo sapiens) (UniProt P00374); assay: Inhibition of human DHFR at 500 uM by UV-Vis spectrometry analysis
T1 sequence (whole entry): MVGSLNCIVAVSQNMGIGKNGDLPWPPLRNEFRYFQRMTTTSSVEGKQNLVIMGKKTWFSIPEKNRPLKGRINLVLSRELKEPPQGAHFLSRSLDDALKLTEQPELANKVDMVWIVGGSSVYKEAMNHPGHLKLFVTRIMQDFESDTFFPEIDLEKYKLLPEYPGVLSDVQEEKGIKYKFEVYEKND

Plasmodium falciparum [6] = assay: Antiplasmodial activity against PYR-resistant Plasmodium falciparum V1/S encoding QM DHFR infected in human erythrocytes assessed as inhibition of parasite growth by [3H]-hypoxanthine incorporation assay; assay type: functional, organism-based; settings: Erythrocyte
[7] = Inhibition of Plasmodium falciparum DHFR N51I/C59R/S108N/I164L quadruple mutant using DHF as substrate assessed as inhibition constant in presence of NADPH by UV-Vis spectrometry analysis
[8] = Cytotoxicity against African green monkey Vero cells assessed as cell growth inhibition incubated for 72 hrs by sulforhodamine B assay; assay type: toxicity, cell-based, Chlorocebus sabaeus
Plasmodium falciparum [9] = assay: Antiplasmodial activity against PYR-sensitive Plasmodium falciparum TM4/8.2 encoding WT DHFR infected in human erythrocytes assessed as inhibition of parasite growth by [3H]-hypoxanthine incorporation assay; assay type: functional, organism-based; settings: TM4/8.2, Erythrocyte
[10] = target: Bifunctional dihydrofolate reductase-thymidylate synthase (Plasmodium falciparum K1, UniProt P13922); assay: Inhibition of wild type Plasmodium falciparum DHFR using DHF as substrate assessed as inhibition constant in presence of NADPH by UV-Vis spectrometry analysis
Chain of Bifunctional dihydrofolate reductase-thymidylate synthase (P13922 whole entry): as the sequence (P13922 whole entry, looked up) above

Dihydrofolate reductase = target: T2, Dihydrofolate reductase (Homo sapiens, UniProt P00374); assay: Inhibition of human DHFR using DHF as substrate assessed as inhibition constant in presence of NADPH by UV-Vis spectrometry analysis
T2 sequence (P00374 whole entry): T1 sequence (whole entry)

Plasmodium falciparum [11] = assay: Inhibition of Plasmodium falciparum DHFR N51I/C59R/S108N/I164L quadruple mutant assessed as fold change in inhibition in presence of 2,4-diamino-6-ethylpyrimidin-5-ol
[12] = Distribution coefficient, log D of compound in n-octanol and saturated PBS at pH 7.4 at 100 uM incubated for 2 hrs under shaking condition by HPLC analysis; assay type: physicochemical
[13] = target: Bifunctional dihydrofolate reductase-thymidylate synthase (Plasmodium falciparum K1) (UniProt P13922); assay: Inhibition of wild type Plasmodium falciparum DHFR using DHF as substrate at 500 uM in presence of NADPH by UV-Vis spectrometry analysis relative to control
[14] = target: Bifunctional dihydrofolate reductase-thymidylate synthase (Plasmodium falciparum K1) (UniProt P13922); assay: Binding affinity to Plasmodium falciparum DHFR assessed as faster binding and release kinetics by surface plasmon resonance analysis
Plasmodium falciparum [15] = assay: Inhibition of Plasmodium falciparum DHFR N51I/C59R/S108N/I164L quadruple mutant using DHF as substrate at 500 uM in presence of NADPH by UV-Vis spectrometry analysis
[16] = Metabolic stability in human liver microsomes assessed as intrinsic clearance measured upto 60 mins in presence of NADPH by LC-MS/MS analysis; assay type: ADME, Microsome; settings: read-out: CLH
[17] = Kinetic solubility of the compound at pH 2.0 at 200 uM incubated for 2 hrs under shaking condition by HPLC analysis; assay type: physicochemical; settings: buffer, read-out: Kinetic_solubility
[18] = Kinetic solubility of the compound at pH 4.5 at 200 uM incubated for 2 hrs under shaking condition by HPLC analysis; assay type: physicochemical; settings: buffer, read-out: Kinetic_solubility
[19] = Metabolic stability in rat liver microsomes assessed as intrinsic clearance measured upto 60 mins in presence of NADPH by LC-MS/MS analysis; assay type: ADME, Microsome; settings: read-out: CLH
[20] = Kinetic solubility of the compound at pH 7.4 at 200 uM incubated for 2 hrs under shaking condition by HPLC analysis; assay type: physicochemical; settings: buffer, read-out: Kinetic_solubility
[21] = Kinetic solubility of the compound at pH 6.5 at 200 uM incubated for 2 hrs under shaking condition by HPLC analysis; assay type: physicochemical; settings: buffer, read-out: Kinetic_solubility
Plasmodium falciparum [22] = assay: Binding affinity to Plasmodium falciparum apo-DHFR N51I/C59R/S108N/I164L quadruple mutant assessed as change in melting temperature by […] analysis
Plasmodium falciparum [23] = assay: Binding affinity to Plasmodium falciparum DHFR N51I/C59R/S108N/I164L quadruple mutant assessed as change in melting temperature in presence of NADPH by […] analysis
[24] = Half life in human; assay type: ADME

SMILES	K [1]	inhibition (Plasmodium falciparum [2])	inhibition [3]	K [4]	inhibition [5]	IC50 (Plasmodium falciparum [6])	Ki [7]	IC50 at 72 h [8]	IC50 (Plasmodium falciparum [9])	Ki (Dihydrofolate reductase)	inhibition [13]	also measured
O=C(O)c1cccc(-c2cccnc2)c1	16.3 M⁻¹ s⁻¹	3.89%	inactive	0.002 s⁻¹	inactive	–	–	–	–	–	–	–
CCc1nc(N)nc(N)c1Cc1cccc(-c2cccc(C(=O)O)c2)c1	–	–	–	–	–	35000 nM	0.81 nM	> 50000 nM	4140 nM	108 nM	–	Ki [10]: 0.23 nM
O=C(O)c1ccc(-c2cnco2)cc1	5.26 M⁻¹ s⁻¹	11.3%	inactive	0.013 s⁻¹	inactive	–	–	–	–	–	–	fold change (FC) (Plasmodium falciparum [11]): 2.6
CCc1nc(N)nc(N)c1Cc1cccc(-c2cccc(C(=O)OC)c2)c1	–	–	–	–	–	40000 nM	0.58 nM	21700 nM	4950 nM	19.4 nM	–	logD at 2 h, 100 µM [12]: 3.2; Ki [10]: 0.21 nM
COc1cccc(-c2ccc(C(=O)O)cc2)c1	–	45.8%	–	–	inactive	–	–	–	–	–	37.8%	fold change (FC) (Plasmodium falciparum [11]): 2; Activity [14]: Active
O=C(O)c1ccccc1-c1ccncc1	–	–	inactive	–	inactive	–	–	–	–	–	–	inhibition (Plasmodium falciparum [15]): inactive; Activity [14]: Active
CCc1nc(N)nc(N)c1Cc1ccc(-c2cccc(C(=O)O)c2)cc1.Cl	–	–	–	–	–	29700 nM	1.96 nM	> 50000 nM	770 nM	147 nM	–	microsomal CLint [16]: 4.92 µL/min/mg; solubility kinetic at 2 h, 200 µM [17]: 192 µM; solubility kinetic at 2 h, 200 µM [18]: 11.4 µM; microsomal CLint [19]: < 3 µL/min/mg; solubility kinetic at 2 h, 200 µM [20]: 29.9 µM; solubility kinetic at 2 h, 200 µM [21]: 15.7 µM; Ki [10]: 0.29 nM
CCc1nc(N)nc(N)c1Cc1cccc(-c2ccc(C(=O)OC)cc2)c1	–	–	–	–	–	> 50000 nM	1.04 nM	> 50000 nM	34100 nM	16.6 nM	–	logD at 2 h, 100 µM [12]: 3.24; Ki [10]: 0.25 nM
O=C(O)c1cccc(-c2ccccc2)n1	9.99 M⁻¹ s⁻¹	–	inactive	0.013 s⁻¹	inactive	–	–	–	–	–	–	inhibition (Plasmodium falciparum [15]): inactive
O=C(O)c1ccc(-n2cccc2)cc1	14.6 M⁻¹ s⁻¹	19.4%	–	0.008 s⁻¹	inactive	–	–	–	–	–	8%	–
O=C(O)c1ccccc1-c1ccco1	40 M⁻¹ s⁻¹	7.7%	–	0.012 s⁻¹	inactive	–	–	–	–	–	6.5%	–
Cc1oc(-c2ccccc2)cc1C(=O)O	6.06 M⁻¹ s⁻¹	–	inactive	0.014 s⁻¹	inactive	–	–	–	–	–	–	inhibition (Plasmodium falciparum [15]): inactive
O=C(O)c1ccc(-c2ccccc2)cn1	24.5 M⁻¹ s⁻¹	7%	inactive	0.037 s⁻¹	inactive	–	–	–	–	–	–	ΔTm (Plasmodium falciparum [22]): -1.2 °C
Cc1ccc(-c2ccc(C(=O)O)cc2)o1	25.4 M⁻¹ s⁻¹	23.1%	–	0.019 s⁻¹	inactive	–	–	–	–	–	27.4%	ΔTm (Plasmodium falciparum [23]): -2.3 °C
O=C(O)c1cccc(-c2ccncc2)c1	6.41 M⁻¹ s⁻¹	19.5%	inactive	–	inactive	–	–	–	–	–	–	ΔTm (Plasmodium falciparum [23]): 0.8 °C
O=C(O)c1cccnc1-c1ccccc1	–	–	inactive	–	inactive	–	–	–	–	–	–	inhibition (Plasmodium falciparum [15]): inactive; Activity [14]: Active
CCc1nc(N)nc(N)c1OCCCOc1ccccc1CCC(=O)O	–	–	–	–	–	56 nM	0.54 nM	> 100000 nM	5 nM	17.4 nM	–	microsomal CLint [16]: < 3 µL/min/mg; solubility kinetic at 2 h, 200 µM [17]: 207 µM (≈ 74.6 µg/mL); solubility kinetic at 2 h, 200 µM [18]: 200 µM (≈ 72 µg/mL); microsomal CLint [19]: < 3 µL/min/mg; half-life [24]: < 20 h; logD at 2 h, 100 µM [12]: -0.095; solubility kinetic at 2 h, 200 µM [20]: 201 µM (≈ 72.5 µg/mL); solubility kinetic at 2 h, 200 µM [21]: 204 µM (≈ 73.5 µg/mL)
CCc1nc(N)nc(N)c1Cc1cccc(-c2ccc(C(=O)O)cc2)c1.Cl.Cl	–	–	–	–	–	> 50000 nM	3.3 nM	> 50000 nM	8550 nM	22 nM	–	solubility kinetic at 2 h, 200 µM [17]: 188 µM; solubility kinetic at 2 h, 200 µM [18]: 19.2 µM; solubility kinetic at 2 h, 200 µM [20]: 30.8 µM; solubility kinetic at 2 h, 200 µM [21]: 19.2 µM; Ki [10]: 0.48 nM
O=C(O)c1ccnc(-c2ccccc2)c1	3.55 M⁻¹ s⁻¹	–	inactive	0.01 s⁻¹	inactive	–	–	–	–	–	–	inhibition (Plasmodium falciparum [15]): inactive
CCc1nc(N)nc(N)c1Cc1ccc(-c2cccc(C(=O)OC)c2)cc1.Cl	–	–	–	–	–	34500 nM	2.11 nM	19300 nM	720 nM	140 nM	–	microsomal CLint [16]: 625 µL/min/mg; solubility kinetic at 2 h, 200 µM [17]: 186 µM; solubility kinetic at 2 h, 200 µM [18]: 183 µM; microsomal CLint [19]: 100 µL/min/mg; logD at 2 h, 100 µM [12]: 3.37; solubility kinetic at 2 h, 200 µM [20]: 8.1 µM; solubility kinetic at 2 h, 200 µM [21]: 8.8 µM; Ki [10]: 0.29 nM
COc1ccccc1-c1ccc(C(=O)O)cc1	–	24%	–	–	inactive	–	–	–	–	–	14.6%	fold change (FC) (Plasmodium falciparum [11]): 2.7; Activity [14]: Active
O=C(O)c1ccc(-c2ccncc2)cc1	16.4 M⁻¹ s⁻¹	10.1%	–	0.001 s⁻¹	inactive	–	–	–	–	–	2.93%	–
COc1cc(Cc2cnc(N)nc2N)cc(OC)c1OC [TRIMETHOPRIM]	–	–	–	–	–	–	49.1 nM	–	–	–	–	–
CCc1nc(N)nc(N)c1Cc1ccc(-c2ccc(C(=O)OC)cc2)cc1.Cl	–	–	–	–	–	> 25000 nM	41.7 nM	> 25000 nM	8150 nM	423 nM	–	microsomal CLint [16]: 459 µL/min/mg; solubility kinetic at 2 h, 200 µM [17]: 154 µM; solubility kinetic at 2 h, 200 µM [18]: 132 µM; microsomal CLint [19]: 764 µL/min/mg; logD at 2 h, 100 µM [12]: 3.49; solubility kinetic at 2 h, 200 µM [20]: < 4 µM; solubility kinetic at 2 h, 200 µM [21]: < 4 µM; Ki [10]: 1.06 nM
CCc1nc(N)nc(N)c1Cc1ccc(-c2ccc(C(=O)O)cc2)cc1.Cl	–	–	–	–	–	> 50000 nM	61.1 nM	> 50000 nM	11200 nM	214 nM	–	microsomal CLint [16]: < 3 µL/min/mg; solubility kinetic at 2 h, 200 µM [17]: 176 µM; solubility kinetic at 2 h, 200 µM [18]: 8.8 µM; microsomal CLint [19]: < 3 µL/min/mg; logD at 2 h, 100 µM [12]: 0.332; solubility kinetic at 2 h, 200 µM [20]: 11.7 µM; solubility kinetic at 2 h, 200 µM [21]: 11.4 µM; Ki [10]: 1.59 nM
COc1cccc(-c2ccc(C(=O)O)o2)c1	9.51 M⁻¹ s⁻¹	–	–	0.014 s⁻¹	inactive	–	–	–	–	–	12.7%	inhibition (Plasmodium falciparum [15]): inactive
O=C(O)c1ccc(-c2cccnc2)cc1	4.18 M⁻¹ s⁻¹	2.4%	–	0.001 s⁻¹	inactive	–	–	–	–	–	8.5%	–
O=C(O)c1ccc(-c2ccccc2F)o1	7.61 M⁻¹ s⁻¹	2.6%	inactive	0.001 s⁻¹	inactive	–	–	–	–	–	–	ΔTm (Plasmodium falciparum [22]): -1.8 °C
O=C(O)c1ccc(-c2ccc(O)cc2)cc1	14.8 M⁻¹ s⁻¹	24.9%	–	0.011 s⁻¹	inactive	–	–	–	–	–	21.1%	–
